{"source": "paper PMC9721440", "about": "“Investigation of the enantioselectivity of acetylcholinesterase and butyrylcholinesterase upon inhibition by tacrine-iminosugar heterodimers” (Journal of Enzyme Inhibition and Medicinal Chemistry, 2022)", "key": {"[1]": {"test_system": "AChE", "conditions": "cited from earlier work; for inhibition of AChE: 20 μM inhibitor concentration"}, "[2]": {"target": "AChE from Electrophorus electricus (eeAChE) (Electrophorus electricus, UniProt O42275)", "sequence (O42275 24-633)": "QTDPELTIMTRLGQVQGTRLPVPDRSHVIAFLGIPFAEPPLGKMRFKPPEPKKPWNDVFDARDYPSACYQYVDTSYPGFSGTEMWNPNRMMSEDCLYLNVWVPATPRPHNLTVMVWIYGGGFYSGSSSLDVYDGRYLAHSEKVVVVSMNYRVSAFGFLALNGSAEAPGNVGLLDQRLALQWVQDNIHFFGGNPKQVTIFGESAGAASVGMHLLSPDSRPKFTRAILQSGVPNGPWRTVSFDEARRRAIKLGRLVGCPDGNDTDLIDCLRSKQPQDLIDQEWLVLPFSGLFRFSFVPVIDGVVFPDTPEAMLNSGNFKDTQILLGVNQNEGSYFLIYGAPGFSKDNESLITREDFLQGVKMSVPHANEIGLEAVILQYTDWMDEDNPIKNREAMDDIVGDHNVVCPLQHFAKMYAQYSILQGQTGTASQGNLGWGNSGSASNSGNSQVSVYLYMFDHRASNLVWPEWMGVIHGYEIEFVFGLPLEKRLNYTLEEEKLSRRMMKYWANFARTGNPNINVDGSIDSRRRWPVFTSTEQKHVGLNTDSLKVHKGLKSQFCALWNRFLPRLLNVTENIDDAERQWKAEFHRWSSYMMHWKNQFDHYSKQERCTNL", "assay": "biochemical", "format": "biochemical", "conditions": "for IC50: [S] = 121 µM, mean ± SD; for Enantioselectivity (eeAChE): IC50(Xa:AChE)/IC50(Xb:AChE); for fold more potent eeAChE inhibitor than 10a: IC50 ratio vs 10a", "from_the_text": "(§1) A Thermo Scintific^TM Varioskan^TM LUX microplate reader and Greiner F-bottom 96-well plates were used. Cornish-Bowden plots (1/V vs. [I] and [S]/V vs. [I]) were used for the visualisation of the mode of inhibition.\n(§2) A minor modification of the Ellman assay was used in order to measure the IC50 values."}, "[3]": {"target": "T1, BuChE from equine serum (eqBuChE) (Equus caballus, UniProt P81908)", "T1 construct": "BuChE from equine serum; from tissue; host or cells: equine serum", "assay": "biochemical", "format": "biochemical", "conditions": "for IC50: [S] = 112 µM, mean ± SD; for Enantioselectivity (eqBuChE): IC50(Xa:BuChE)/IC50(Xb,BuChE)", "from_the_text": "as §1, §2"}, "[4]": {"test_system": "A549, HBL-100, HeLa, SW1573, T-47D and WiDr cells", "assay": "Antiproliferative SRB assay, panel of six cancer cell lines", "format": "cell-based", "conditions": "Homo sapiens, 48 h exposure, whole panel, read-out: GI50 against panel of six human cancer cell lines", "from_the_text": "(§3) For the antiproliferative tests, we applied our implementation of the National Cancer Institute (NCI) screening protocol. As a model of human solid tumour cells, we selected the cell lines A549 (non-small cell lung), HBL-100 (breast), HeLa (cervix), SW1573 (non-small cell lung), T-47D (breast), and WiDr (colon). Cell seeding densities, based on the cell line doubling time, were 2500 (A549, HBL-100, HeLa and SW1573) or 5000 (T-47D and WiDr) cells/well. Compounds were initially dissolved in DMSO at 400 times the desired final maximum test concentration. […] Each compound was tested in triplicate at different dilutions ranging from 1 to 100 μM. Drug treatment began on day 1 after sowing. The drug incubation times were 48 h, after which the cells were precipitated with ice-cold TCA (50% w/v) and fixed for 60 min at 4 °C. Then the SRB test was performed. The optical density (OD) of each well was measured at 530 nm using a microplate absorbance reader (PowerWave XS, BioTek Instruments Inc.). Values were corrected for background OD of wells containing medium only[39].\n(§4) Antiproliferative activity of our heterodimers was investigated for six cancer cell lines including A549, HBL-100, HeLa, SW1573, T-47D and WiDr."}, "[5]": {"test_system": "HBL-100 (breast) cells", "assay": "Antiproliferative SRB assay, HBL-100", "format": "cell-based", "conditions": "Homo sapiens, 48 h exposure", "from_the_text": "as §3, §4"}, "[6]": {"test_system": "HeLa (cervix) cells", "assay": "Antiproliferative SRB assay, HeLa", "format": "cell-based", "conditions": "Homo sapiens, 48 h exposure", "from_the_text": "as §3, §4"}, "[7]": {"test_system": "A549 (non-small cell lung) cells", "assay": "Antiproliferative SRB assay, A549", "format": "cell-based, human", "conditions": "48 h exposure", "from_the_text": "as §3, §4"}, "[8]": {"test_system": "WiDr (colon) cells", "assay": "Antiproliferative SRB assay, WiDr", "format": "cell-based", "conditions": "Homo sapiens, 48 h exposure", "from_the_text": "as §3, §4"}, "[9]": {"test_system": "T-47D (breast) cells", "assay": "Antiproliferative SRB assay, T-47D", "format": "cell-based", "conditions": "Homo sapiens, T47D, 48 h exposure", "from_the_text": "as §3, §4"}, "[10]": {"test_system": "SW1573 (non-small cell lung) cells", "assay": "Antiproliferative SRB assay, SW1573", "format": "cell-based", "conditions": "Homo sapiens, 48 h exposure", "from_the_text": "as §3, §4"}}, "note": "Entries after “also recorded” stand apart in the source; their conditions may differ."}
{"smiles": "COc1ccc2c3c1O[C@H]1C[C@@H](O)C=C[C@@]31CCN(C)C2", "note": "[(-)-Galantamine (2a), (-)-Galantamine]", "values": [{"measurement": "inhibition of AChE", "setting": "[1]", "value": "ca. 94%"}]}
{"smiles": "CNC(=O)Oc1ccc2c(c1)[C@]1(C)CCN(C)[C@@H]1N2C", "note": "[(-)-physostigmine (3a), (-)-physostigmine]", "values": [{"measurement": "fold stronger AChE inhibitor than (+)-physostigmine (3b)", "setting": "[1]; depending on the enzyme source", "value": "25- to 1000 fold"}]}
{"smiles": "COc1ccc2c3c1O[C@@H]1C[C@H](O)C=C[C@]31CCN(C)C2", "note": "[Compound 2b]", "values": [{"measurement": "inhibition of AChE", "setting": "[1]", "value": "ca. 4%"}]}
{"smiles": "OC[C@@H]1[C@@H](O)[C@H](O)CN1Cc1cn(CCNc2c3c(nc4ccccc24)CCCC3)nn1", "note": "[Compound 9a]", "values": [{"measurement": "IC50", "setting": "[2]", "value": "420 ± 10", "unit": "nM"}, {"measurement": "IC50", "setting": "[3]", "value": "96 ± 5", "unit": "nM"}, {"measurement": "GI50", "setting": "[4]", "value": "> 100000", "unit": "nM"}]}
{"smiles": "OC[C@H]1[C@H](O)[C@@H](O)CN1Cc1cn(CCNc2c3c(nc4ccccc24)CCCC3)nn1", "note": "[Compound 9b]", "values": [{"measurement": "Enantioselectivity (eeAChE)", "setting": "[2]", "value": 0.28}, {"measurement": "IC50", "setting": "[2]", "value": "1480 ± 240", "unit": "nM"}, {"measurement": "Enantioselectivity (eqBuChE)", "setting": "[3]", "value": 0.54}, {"measurement": "IC50", "setting": "[3]", "value": "179 ± 25", "unit": "nM"}, {"measurement": "GI50", "setting": "[4]", "value": "> 100000", "unit": "nM"}]}
{"smiles": "OC[C@@H]1[C@@H](O)[C@H](O)CN1Cc1cn(CCCNc2c3c(nc4ccccc24)CCCC3)nn1", "note": "[Compound 10a]", "values": [{"measurement": "fold less potent eeAChE inhibitor than 10b", "setting": "[2]; IC50 ratio vs 10b, less potent", "value": "ca. 3.5 fold"}, {"measurement": "IC50", "setting": "[2]", "value": "530 ± 30", "unit": "nM"}, {"measurement": "IC50", "setting": "[3]", "value": "184 ± 16", "unit": "nM"}, {"measurement": "GI50", "setting": "[4]", "value": "> 100000", "unit": "nM"}]}
{"smiles": "OC[C@H]1[C@H](O)[C@@H](O)CN1Cc1cn(CCCNc2c3c(nc4ccccc24)CCCC3)nn1", "note": "[Compound 10b]", "values": [{"measurement": "Enantioselectivity (eeAChE)", "setting": "[2]", "value": 3.5}, {"measurement": "fold more potent eeAChE inhibitor than 10a", "setting": "[2]", "value": "ca. 4 fold"}, {"measurement": "IC50", "setting": "[2]", "value": "150 ± 38", "unit": "nM"}, {"measurement": "Enantioselectivity (eqBuChE)", "setting": "[3]", "value": 0.79}, {"measurement": "IC50", "setting": "[3]", "value": "232 ± 28", "unit": "nM"}, {"measurement": "GI50", "setting": "[4]", "value": "> 100000", "unit": "nM"}]}
{"smiles": "OCC1C(O)C(O)CN1Cc1cn(CCCCCCNc2c3c(nc4ccccc24)CCCC3)nn1", "note": "(centres unmarked) [Compound 11a]", "values": [{"measurement": "GI50", "setting": "[5]", "value": "> 100000", "unit": "nM"}, {"measurement": "GI50", "setting": "[6]", "value": "93000 ± 12000", "unit": "nM"}, {"measurement": "fold more potent eeAChE inhibitor than 9a", "setting": "[2]; IC50 ratio vs 9a", "value": "ca. 43 fold"}, {"measurement": "fold more potent eeAChE inhibitor than 10a", "setting": "[2]", "value": 55, "unit": "fold"}, {"measurement": "IC50", "setting": "[2]", "value": "9.7 ± 1", "unit": "nM"}, {"measurement": "fold stronger eqBuChE inhibitor than 9a", "setting": "[3]; IC50 ratio vs 9a", "value": "roughly 11 fold"}, {"measurement": "fold stronger eqBuChE inhibitor than 10a", "setting": "[3]; IC50 ratio vs 10a", "value": 20, "unit": "fold"}, {"measurement": "IC50", "setting": "[3]", "value": "9.1 ± 0.3", "unit": "nM"}, {"measurement": "GI50", "setting": "[7]", "value": "94000 ± 9600", "unit": "nM"}, {"measurement": "GI50", "setting": "[7]; Homo sapiens, A549, 48 h", "value": "< 100000", "unit": "nM"}, {"measurement": "GI50", "setting": "[8]", "value": "> 100000", "unit": "nM"}, {"measurement": "GI50", "setting": "[9]", "value": "> 100000", "unit": "nM"}, {"measurement": "GI50", "setting": "[10]", "value": "> 100000", "unit": "nM"}]}
{"smiles": "OC[C@H]1[C@H](O)[C@@H](O)CN1Cc1cn(CCCCCCNc2c3c(nc4ccccc24)CCCC3)nn1", "note": "[Compound 11b]", "values": [{"measurement": "GI50", "setting": "[5]", "value": "> 100000", "unit": "nM"}, {"measurement": "GI50", "setting": "[6]", "value": "> 100000", "unit": "nM"}, {"measurement": "Mode of inhibition eeAChE", "setting": "[2]; Cornish-Bowden plots", "value": "mixed; also recorded: (mixed)"}, {"measurement": "Enantioselectivity (eeAChE)", "setting": "[2]", "value": 0.91}, {"measurement": "fold more potent eeAChE inhibitor than 9b", "setting": "[2]; IC50 ratio vs 9b", "value": "ca. 138 fold"}, {"measurement": "fold more potent eeAChE inhibitor than 10b", "setting": "[2]; IC50 ratio vs 10b", "value": "~14", "unit": "fold"}, {"measurement": "IC50", "setting": "[2]", "value": "10.7 ± 0.3", "unit": "nM"}, {"measurement": "Ki", "setting": "[2]; mixed inhibition, Cornish-Bowden, read-out: Ki (competitive inhibition constant) eeAChE", "value": 19, "unit": "nM"}, {"measurement": "Mode of inhibition eqBuChE", "setting": "[3]; Cornish-Bowden plots", "value": "mixed; also recorded: (mixed)"}, {"measurement": "Enantioselectivity (eqBuChE)", "setting": "[3]", "value": 1.1}, {"measurement": "fold stronger eqBuChE inhibitor than 9b", "setting": "[3]; IC50 ratio vs 9b", "value": 22, "unit": "fold"}, {"measurement": "fold stronger eqBuChE inhibitor than 10b", "setting": "[3]; IC50 ratio vs 10b", "value": 29, "unit": "fold"}, {"measurement": "IC50", "setting": "[3]", "value": "8.1 ± 0.1", "unit": "nM"}, {"measurement": "Ki", "setting": "[3]; mixed inhibition, Cornish-Bowden, read-out: Ki (competitive inhibition constant) eqBuChE", "value": 10, "unit": "nM"}, {"measurement": "GI50", "setting": "[7]", "value": "84000 ± 28000", "unit": "nM"}, {"measurement": "GI50", "setting": "[7]; Homo sapiens, A549, 48 h", "value": "< 100000", "unit": "nM"}, {"measurement": "GI50", "setting": "[8]", "value": "> 100000", "unit": "nM"}, {"measurement": "GI50", "setting": "[9]", "value": "> 100000", "unit": "nM"}, {"measurement": "GI50", "setting": "[10]", "value": "97000 ± 5400", "unit": "nM"}]}
